Source: PubChem BioAssay AID248 (DTP/NCI, 2004)
Several values for one entry are separate records, joined by “and”; a condition that tells them apart may be missing. Identical values can stand only once. Toxic doses and inconclusive results are not listed. Rule as the data show it: active = T/C of 150% or more; inactive = T/C below 125%. Peptide text beside a SMILES is read from it. * marks the point of attachment. Cbz = O=C(OCc1ccccc1)*; OBn = c1ccc(CO*)cc1; Bn = c1ccc(C*)cc1

Tested on: L1210 leukemia ip in BDF1 mice, survival T/C
Experiment: NCI In Vivo Anticancer Drug Screen. Data for tumor model L1210 Leukemia (intraperitoneal) in B6D2F1 (BDF1) mice
Settings: endpoint: mean survival time, higher = longer survival
Procedure, shortened: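 Ratio derived from survival: compound-dosed mice over vehicle-dosed mice, all bearing a transplantable tumor.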

[1] = dose: 100.0 mg/kg/injection, schedule: Q01DX001 (ip), vehicle: carboxymethylcellulose (CMC)
[2] = dose: 200.0 mg/kg/injection, schedule: Q01DX001 (ip), vehicle: carboxymethylcellulose (CMC)
[3] = dose: 100.0 mg/kg/injection, schedule: Q01DX009 (ip), vehicle: Klucel (hydroxypropylcellulose) (HPC)
[4] = dose: 100.0 mg/kg/injection, schedule: Q04DX003 (ip), vehicle: Klucel (hydroxypropylcellulose) (HPC)

Measured: T/C

CC(C)CC(NC(=O)C(CSCc1ccccc1)NC(=O)OCc1ccccc1)C(=O)OCc1ccccc1 (stereo not given) (Cbz-Cys(Bn)-Leu-OBn; configuration not given here)
inactive: dose: 100.0 mg/kg/injection, schedule: Q04DX003 (ip), vehicle: gum acacia 93 % of control | dose: 200.0 mg/kg/injection, schedule: Q04DX003 (ip), vehicle: gum acacia 93 % of control | dose: 400.0 mg/kg/injection, schedule: Q04DX003 (ip), vehicle: gum acacia 91 % of control

CCOC(=O)Cc1c(C)c2c(O)cc(O)cc2oc1=O
inactive: [1] 97 % of control | [2] 89 % of control | dose: 400.0 mg/kg/injection, schedule: Q01DX001 (ip), vehicle: carboxymethylcellulose (CMC) 97 % of control

CNC(=S)N/N=C/CCC/C=N/NC(=S)NC
inactive: dose: 50.0 mg/kg/injection, schedule: Q01DX001 (ip), vehicle: carboxymethylcellulose (CMC) 96 % of control | [1] 100 % of control | [2] 98 % of control

Cn1c(N)c(N=Nc2ccc(S(N)(=O)=O)cc2)c(=O)n(C)c1=O
inactive: dose: 100.0 mg/kg/injection, schedule: Q01DX001 (ip), vehicle: saline 94 % of control | dose: 200.0 mg/kg/injection, schedule: Q01DX001 (ip), vehicle: saline 102 % of control | dose: 400.0 mg/kg/injection, schedule: Q01DX001 (ip), vehicle: saline 96 % of control

ClCCN(CCCl)c1ccc(Nc2nc(Nc3ccc(N(CCCl)CCCl)cc3)c3ccccc3n2)cc1
inactive: dose: 25.0 mg/kg/injection, schedule: Q04DX002 (ip), vehicle: saline 105 % of control | dose: 50.0 mg/kg/injection, schedule: Q04DX002 (ip), vehicle: saline 113 % of control | dose: 100.0 mg/kg/injection, schedule: Q04DX002 (ip), vehicle: saline 111 % of control | dose: 200.0 mg/kg/injection, schedule: Q04DX002 (ip), vehicle: saline 106 % of control and 109 % of control | dose: 400.0 mg/kg/injection, schedule: Q04DX002 (ip), vehicle: saline 95 % of control

Cc1ccc(CCO)c(C)c1
inactive: [3] 92 % of control | [4] 92 % of control | dose: 200.0 mg/kg/injection, schedule: Q01DX009 (ip), vehicle: Klucel (hydroxypropylcellulose) (HPC) 94 % of control | dose: 200.0 mg/kg/injection, schedule: Q04DX003 (ip), vehicle: Klucel (hydroxypropylcellulose) (HPC) 92 % of control | dose: 400.0 mg/kg/injection, schedule: Q01DX009 (ip), vehicle: Klucel (hydroxypropylcellulose) (HPC) 90 % of control | dose: 400.0 mg/kg/injection, schedule: Q04DX003 (ip), vehicle: Klucel (hydroxypropylcellulose) (HPC) 103 % of control

Nc1cc2c3ccccc3ncc2c2ccccc12
inactive: dose: 100.0 mg/kg/injection, schedule: Q01DX009 (ip), vehicle: saline with Tween-80 106 % of control | dose: 100.0 mg/kg/injection, schedule: Q04DX003 (ip), vehicle: saline with Tween-80 104 % of control | dose: 200.0 mg/kg/injection, schedule: Q01DX009 (ip), vehicle: saline with Tween-80 108 % of control | dose: 200.0 mg/kg/injection, schedule: Q04DX003 (ip), vehicle: saline with Tween-80 94 % of control | dose: 400.0 mg/kg/injection, schedule: Q01DX009 (ip), vehicle: saline with Tween-80 108 % of control | dose: 400.0 mg/kg/injection, schedule: Q04DX003 (ip), vehicle: saline with Tween-80 105 % of control

COc1ccc2c(c1)CCC1=C2CCC(C)(C(C)=O)C1C(=O)O (stereo not given)
inactive: dose: 25.0 mg/kg/injection, schedule: Q01DX009 (ip), vehicle: Klucel (hydroxypropylcellulose) (HPC) 101 % of control | dose: 25.0 mg/kg/injection, schedule: Q04DX003 (ip), vehicle: Klucel (hydroxypropylcellulose) (HPC) 97 % of control | dose: 50.0 mg/kg/injection, schedule: Q01DX009 (ip), vehicle: Klucel (hydroxypropylcellulose) (HPC) 98 % of control | dose: 50.0 mg/kg/injection, schedule: Q04DX003 (ip), vehicle: Klucel (hydroxypropylcellulose) (HPC) 100 % of control | [3] 95 % of control | [4] 102 % of control and 87 % of control
